# According to patent publication US20230365627A1, “MACROCYCLIC PEPTIDE BORONATE IMMUNOMODULATORS” (Bristol-Myers Squibb Company, priority 2020, published 2023):
# pIC50: −log10 of the molar value. Where two headings read alike, the source gives them in different places. *1 amine or outer side, *2 acyl side, *3 side chain or, on linkers, in order; H or OH if unused. Where a SMILES comes first, the peptide text is derived from it. Bridges are numbered along the chain shown (N, C = ends). [ ]: non-standard residue; d: D form. X23 = O=C([C@H](CN1Cc2ccc(cc2)B2O[C@@H]([C@H](O)[C@@H](C(O)CO)O2)[C@H](O)C1)N[*:1])[*:2]; X13 = O=C([C@H](CCNC[C@@H](O)[C@@H](O)[C@H](O)[C@H](O)C(O)CO)N[*:1])[*:2]; Trp(1-CH2CO) = O=C([C@H](Cc1cn(CC(=O)[*:3])c2ccccc12)N[*:1])[*:2]; Trp(1-CH2COOH) = N[C@@H](Cc1cn(CC(=O)O)c2ccccc12)C(=O)O; X24 = O=C([C@H](CNCc1ccc(B(O)O[*:3])c(F)c1)N[*:1])[*:2]; X5 = O=C([C@H](CNCc1ccc(Cl)c(B(O)O[*:3])c1)N[*:1])[*:2]; X31 = O=C([C@H](CNCc1ccc(Cl)cc1B(O)O[*:3])N[*:1])[*:2]; X4 = O=C([C@H](CNCc1cc(Cl)ccc1B(O)O[*:3])N[*:1])[*:2]; X3 = O=C([C@H](CNCc1ccc(B(O)O[*:3])cc1F)N[*:1])[*:2]; X1 = Cc1cc(CNC[C@H](N[*:1])C(=O)[*:2])cc(C)c1B(O)O; X11 = COc1ccc(CNCC[C@H](N[*:1])C(=O)[*:2])cc1B(O)O; X10 = COc1ccc(CNC[C@H](N[*:1])C(=O)[*:2])cc1B(O)O; Hyp = O=C(O)[C@@H]1C[C@@H](O)CN1; NMeNle = CCCC[C@H](NC)C(=O)O; NMeA = CN[C@@H](C)C(=O)O; Dab = NCC[C@H](N)C(=O)O
# Target: PD-1/PD-L1 (Homo sapiens (Human), UniProt Q9NZQ7)
# Experiment: PD-1/PD-L1 Homogenous Time-Resolved Fluorescence (HTRF) binding assay
# Description: Methods for Testing the Ability of Macrocyclic Peptides to Compete for the Binding of PD-1 to PD-L1 Using Homogenous Time-Resolved Fluorescence (HTRF) Binding Assays
# The ability of the compounds of formula (I) to bind to PD-L1 was investigated using a PD-1/PD-L1 Homogenous Time-Resolved Fluorescence (HTRF) binding assay.
# Homogenous Time-Resolved Fluorescence (HTRF) Binding Assay
# The interaction of PD-1 and PD-L1 can be assessed using soluble, purified preparations of the extracellular domains of the two proteins. The PD-1 and PD-L1 protein extracellular domains were expressed as fusion proteins with detection tags, for PD-1, the tag was the Fc portion of Immunoglobulin (PD-1-Ig) and for PD-L1 it was the 6 histidine motif (PD-L1-His). All binding studies were performed in an HTRF assay buffer consisting of dPBS supplemented with 0.1% […] bovine serum albumin and 0.05% (v/v) Tween-20. For the h/PD-L1-His binding assay, inhibitors were pre-incubated with PD-L1-His (10 nM final) for 15 m in 4 μl of assay buffer, followed by addition of PD-1-Ig (20 nM final) in 1 μl of assay buffer and further incubation for 15 m. HTRF detection was achieved using europium cryptate-labeled anti-Ig (1 nM final) and allophycocyanin (APC) labeled anti-His (20 nM final). Antibodies were diluted in HTRF detection buffer and 5 μl was dispensed on top of the binding reaction. The reaction mixture was allowed to equilibrate for 30 minutes and the resulting signal (665 nm/620 nm ratio) was obtained using an EnVision fluorometer. Additional binding assays were established between the human proteins PD-1-Ig/PD-L2-His (20 & 5 nM, respectively) and CD80-His/PD-L1-Ig (100 & 10 nM, respectively).
# Recombinant Proteins: Human PD-1 (25-167) with a C-terminal human Fc domain of immunoglobulin G (Ig) epitope tag [hPD-1 (25-167)-3S-IG] and human PD-L1 (18-239) with a C-terminal His epitope tag [hPD-L1(18-239)-TVMV-His] were expressed in HEK293T cells and purified sequentially by ProteinA affinity chromatography and size exclusion chromatography. Human PD-L2-His and CD80-His was obtained through commercial sources.
# Table 1 lists the IC50 values for representative examples of this disclosure measured in the PD-1/PD-L1 Homogenous Time-Resolved Fluorescence (HTRF) binding assay.
# [1] = PD-L1-His 10 nM, PD-1-Ig 20 nM, read-out: HTRF IC50
# Sequence of PD-1/PD-L1 (Q9NZQ7 18-239): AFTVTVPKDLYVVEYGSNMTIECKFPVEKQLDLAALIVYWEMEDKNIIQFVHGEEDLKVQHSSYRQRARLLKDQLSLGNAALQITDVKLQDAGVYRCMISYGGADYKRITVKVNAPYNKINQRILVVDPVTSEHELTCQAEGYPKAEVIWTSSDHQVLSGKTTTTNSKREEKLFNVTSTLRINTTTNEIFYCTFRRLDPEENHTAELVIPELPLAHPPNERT
smiles,measurement,setting,value
CCCC[C@H]1C(=O)N(C)[C@@H](CCCC)C(=O)N[C@@H](CC(C)C)C(=O)N[C@H](C(=O)NCC(N)=O)CSCC(=O)N[C@@H](Cc2ccc(O)cc2)C(=O)N(C)[C@@H](C)C(=O)N[C@@H](CC(N)=O)C(=O)N2CCC[C@H]2C(=O)N[C@H]2CNCc3ccc(c(F)c3)B(O)OC(=O)Cn3cc(c4ccccc43)C[C@H](NC(=O)[C@H](CCN)NC(=O)[C@H](Cc3c[nH]c4ccccc34)NC(=O)[C@@H]3C[C@@H](O)CN3C(=O)[C@H](CC(C)C)NC2=O)C(=O)N1C [Example 1009] ({CH2CO}-Y[NMeA]NP[X24]L[Hyp]W[Dab][Trp(1-CH2CO)][NMeNle][NMeNle]LCG-NH2; ester 5-10; thioether N-14),pIC50,[1],8.59
CCCC[C@H]1C(=O)N(C)[C@@H](CCCC)C(=O)N[C@@H](CC(C)C)C(=O)N[C@H](C(=O)NCC(N)=O)CSCC(=O)N[C@@H](Cc2ccc(O)cc2)C(=O)N(C)[C@@H](C)C(=O)N[C@@H](CC(N)=O)C(=O)N2CCC[C@H]2C(=O)N[C@H]2CNCc3ccc(Cl)cc3B(O)OC(=O)Cn3cc(c4ccccc43)C[C@H](NC(=O)[C@H](CCN)NC(=O)[C@H](Cc3c[nH]c4ccccc34)NC(=O)[C@@H]3C[C@@H](O)CN3C(=O)[C@H](CC(C)C)NC2=O)C(=O)N1C [Example 1018] ({CH2CO}-Y[NMeA]NP[X31]L[Hyp]W[Dab][Trp(1-CH2CO)][NMeNle][NMeNle]LCG-NH2; ester 5-10; thioether N-14),pIC50,[1],8.31
CCCC[C@H]1C(=O)N(C)[C@@H](CCCC)C(=O)N[C@@H](CC(C)C)C(=O)N[C@H](C(=O)NCC(N)=O)CSCC(=O)N[C@@H](Cc2ccc(O)cc2)C(=O)N(C)[C@@H](C)C(=O)N[C@@H](CC(N)=O)C(=O)N2CCC[C@H]2C(=O)N[C@H]2CNCc3cc(Cl)ccc3B(O)OC(=O)Cn3cc(c4ccccc43)C[C@H](NC(=O)[C@H](CCN)NC(=O)[C@H](Cc3c[nH]c4ccccc34)NC(=O)[C@@H]3C[C@@H](O)CN3C(=O)[C@H](CC(C)C)NC2=O)C(=O)N1C [Example 1008] ({CH2CO}-Y[NMeA]NP[X4]L[Hyp]W[Dab][Trp(1-CH2CO)][NMeNle][NMeNle]LCG-NH2; ester 5-10; thioether N-14),pIC50,[1],8.17
CCCC[C@H]1C(=O)N(C)[C@@H](CCCC)C(=O)N[C@@H](CC(C)C)C(=O)N[C@H](C(=O)NCC(N)=O)CSCC(=O)N[C@@H](Cc2ccc(O)cc2)C(=O)N(C)[C@@H](C)C(=O)N[C@@H](CC(N)=O)C(=O)N2CCC[C@H]2C(=O)N[C@@H](CNCc2ccc(OC)c(B(O)O)c2)C(=O)N[C@@H](CC(C)C)C(=O)N2C[C@H](O)C[C@H]2C(=O)N[C@@H](Cc2c[nH]c3ccccc23)C(=O)N[C@@H](CCNCc2ccc(OC)c(B(O)O)c2)C(=O)N[C@@H](Cc2cn(CC(=O)O)c3ccccc23)C(=O)N1C [Example 1032] ({CH2CO}-Y[NMeA]NP[X10]L[Hyp]W[X11][Trp(1-CH2COOH)][NMeNle][NMeNle]LCG-NH2; thioether N-14),pIC50,[1],8.23
CCCC[C@H]1C(=O)N(C)[C@@H](CCCC)C(=O)N[C@@H](CC(C)C)C(=O)N[C@H](C(=O)NCC(N)=O)CSCC(=O)N[C@H]2Cc3ccc(cc3)OB(O)c3ccc(nc3)CNCC[C@@H]3NC(=O)[C@H](Cc4c[nH]c5ccccc45)NC(=O)[C@@H]4C[C@@H](O)CN4C(=O)[C@H](CC(C)C)NC(=O)[C@H](CNCc4ccc(cn4)B(O)OC(=O)Cn4cc(c5ccccc54)C[C@H](NC3=O)C(=O)N1C)NC(=O)[C@@H]1CCCN1C(=O)[C@H](CC(N)=O)NC(=O)[C@H](C)N(C)C2=O [Example 1034],pIC50,[1],7.96
CCCC[C@H]1C(=O)N(C)[C@@H](CCCC)C(=O)N[C@@H](CC(C)C)C(=O)N[C@H](C(=O)NCC(N)=O)CSCC(=O)N[C@@H](Cc2ccc(O)cc2)C(=O)N(C)[C@@H](C)C(=O)N[C@@H](CC(N)=O)C(=O)N2CCC[C@H]2C(=O)N[C@H]2CNCc3ccc(cc3F)B(O)OC(=O)Cn3cc(c4ccccc43)C[C@H](NC(=O)[C@H](CCN)NC(=O)[C@H](Cc3c[nH]c4ccccc34)NC(=O)[C@@H]3C[C@@H](O)CN3C(=O)[C@H](CC(C)C)NC2=O)C(=O)N1C [Example 1013] ({CH2CO}-Y[NMeA]NP[X3]L[Hyp]W[Dab][Trp(1-CH2CO)][NMeNle][NMeNle]LCG-NH2; ester 5-10; thioether N-14),pIC50,[1],8.43
CCCC[C@H]1C(=O)N(C)[C@@H](CCCC)C(=O)N[C@@H](CC(C)C)C(=O)N[C@H](C(=O)NCC(N)=O)CSCC(=O)N[C@@H](Cc2ccc(O)cc2)C(=O)N(C)[C@@H](C)C(=O)N[C@@H](CC(N)=O)C(=O)N2CCC[C@H]2C(=O)N[C@H]2CNCc3ccc(cc3)B3OB(O3)c3cccc(c3)CNCC[C@H](NC(=O)[C@H](Cc3c[nH]c4ccccc34)NC(=O)[C@@H]3C[C@@H](O)CN3C(=O)[C@H](CC(C)C)NC2=O)C(=O)N[C@@H](Cc2cn(CC(=O)O)c3ccccc23)C(=O)N1C [Example 1005],pIC50,[1],8.15
CCCC[C@H]1C(=O)N(C)[C@@H](CCCC)C(=O)N[C@@H](CC(C)C)C(=O)N[C@H](C(=O)NCC(N)=O)CSCC(=O)N[C@@H](Cc2ccc(O)cc2)C(=O)N(C)[C@@H](C)C(=O)N[C@@H](CC(N)=O)C(=O)N2CCC[C@H]2C(=O)N[C@@H](CN2Cc3ccc(cc3)B3O[C@@H]([C@H](O)[C@@H](C(O)CO)O3)[C@H](O)C2)C(=O)N[C@@H](CC(C)C)C(=O)N2C[C@H](O)C[C@H]2C(=O)N[C@@H](Cc2c[nH]c3ccccc23)C(=O)N[C@@H](CCNC[C@@H](O)[C@@H](O)[C@H](O)[C@H](O)C(O)CO)C(=O)N[C@@H](Cc2cn(CC(=O)O)c3ccccc23)C(=O)N1C (stereo partly drawn) [Example 1039] ({CH2CO}-Y[NMeA]NP[X23]L[Hyp]W[X13][Trp(1-CH2COOH)][NMeNle][NMeNle]LCG-NH2; thioether N-14),pIC50,,8.36
CCCC[C@H]1C(=O)N(C)[C@@H](CCCC)C(=O)N[C@@H](CC(C)C)C(=O)N[C@H](C(=O)NCC(N)=O)CSCC(=O)N[C@@H](Cc2ccc(O)cc2)C(=O)N(C)[C@@H](C)C(=O)N[C@@H](CC(N)=O)C(=O)N2CCC[C@H]2C(=O)N[C@@H](CNCc2cc(C)c(B(O)O)c(C)c2)C(=O)N[C@@H](CC(C)C)C(=O)N2C[C@H](O)C[C@H]2C(=O)N[C@@H](Cc2c[nH]c3ccccc23)C(=O)N[C@@H](CCN)C(=O)N[C@@H](Cc2cn(CC(=O)O)c3ccccc23)C(=O)N1C [Example 1014] ({CH2CO}-Y[NMeA]NP[X1]L[Hyp]W[Dab][Trp(1-CH2COOH)][NMeNle][NMeNle]LCG-NH2; thioether N-14),pIC50,[1],8.09
CCCC[C@H]1C(=O)N(C)[C@@H](CCCC)C(=O)N[C@@H](CC(C)C)C(=O)N[C@H](C(=O)NCC(N)=O)CSCC(=O)N[C@@H](Cc2ccc(O)cc2)C(=O)N(C)[C@@H](C)C(=O)N[C@@H](CC(N)=O)C(=O)N2CCC[C@H]2C(=O)N[C@H]2CNCc3ccc(Cl)c(c3)B(O)OC(=O)Cn3cc(c4ccccc43)C[C@H](NC(=O)[C@H](CCN)NC(=O)[C@H](Cc3c[nH]c4ccccc34)NC(=O)[C@@H]3C[C@@H](O)CN3C(=O)[C@H](CC(C)C)NC2=O)C(=O)N1C [Example 1011] ({CH2CO}-Y[NMeA]NP[X5]L[Hyp]W[Dab][Trp(1-CH2CO)][NMeNle][NMeNle]LCG-NH2; ester 5-10; thioether N-14),pIC50,[1],8.19
CCCC[C@H]1C(=O)N(C)[C@@H](CCCC)C(=O)N[C@@H](CC(C)C)C(=O)N[C@H](C(=O)NCC(N)=O)CSCC(=O)N[C@H]2Cc3ccc(cc3)OB(O)c3ccc(c(F)c3)CNCC[C@@H]3NC(=O)[C@H](Cc4c[nH]c5ccccc45)NC(=O)[C@@H]4C[C@@H](O)CN4C(=O)[C@H](CC(C)C)NC(=O)[C@H](CNCc4ccc(cc4F)B(O)OC(=O)Cn4cc(c5ccccc54)C[C@H](NC3=O)C(=O)N1C)NC(=O)[C@@H]1CCCN1C(=O)[C@H](CC(N)=O)NC(=O)[C@H](C)N(C)C2=O [Example 1028],pIC50,[1],8.34
CCCC[C@H]1C(=O)N(C)[C@@H](CCCC)C(=O)N[C@@H](CC(C)C)C(=O)N[C@H](C(=O)NCC(N)=O)CSCC(=O)N[C@@H](Cc2ccc(O)cc2)C(=O)N(C)[C@@H](C)C(=O)N[C@@H](CC(N)=O)C(=O)N2CCC[C@H]2C(=O)N[C@@H](CNCc2ccc(OC)c(B(O)O)c2)C(=O)N[C@@H](CC(C)C)C(=O)N2C[C@H](O)C[C@H]2C(=O)N[C@@H](Cc2c[nH]c3ccccc23)C(=O)N[C@@H](CCN)C(=O)N[C@@H](Cc2cn(CC(=O)O)c3ccccc23)C(=O)N1C [Example 1023] ({CH2CO}-Y[NMeA]NP[X10]L[Hyp]W[Dab][Trp(1-CH2COOH)][NMeNle][NMeNle]LCG-NH2; thioether N-14),pIC50,[1],8.01
